According to the supplement of paper PMC13380429:
± gives the standard deviation of the averaged measurements.

Tests used:
Details in all cases: 72 h
U2OS [1] = assay: relative viability EC50 (midpoint between 100% and the lowest measured viability); higher = less toxic
Caco-2 [2] = assay: as above
Vero E6 [3] = assay: as above
HepG2 [4] = assay: as above
Calu-3 [5] = assay: as above
U2OS [6] = assay: drug sensitivity score (DSS) for viability; higher = more toxic; extreme values may be limits of the assay
Caco-2 [7] = assay: as above
Vero E6 [8] = assay: as above
HepG2 [9] = assay: as above
Calu-3 [10] = assay: as above
U2OS [11] = assay: cell viability relative to DMSO; higher = less toxic
Caco-2 [12] = assay: as above
Vero E6 [13] = assay: as above
HepG2 [14] = assay: as above
Calu-3 [15] = assay: as above

Compound	relative viability EC50 (U2OS [1])	relative viability EC50 (Caco-2 [2])	relative viability EC50 (Vero E6 [3])	relative viability EC50 (HepG2 [4])	relative viability EC50 (Calu-3 [5])	drug sensitivity score (U2OS [6])	drug sensitivity score (Caco-2 [7])	drug sensitivity score (Vero E6 [8])	drug sensitivity score (HepG2 [9])	drug sensitivity score (Calu-3 [10])	cell viability (U2OS [11]; 1 nM)	cell viability (U2OS [11]; 10 nM)	cell viability (U2OS [11]; 100 nM)	cell viability (U2OS [11]; 1000 nM)	cell viability (U2OS [11]; 10000 nM)	cell viability (Caco-2 [12]; 1 nM)	cell viability (Caco-2 [12]; 10 nM)	cell viability (Caco-2 [12]; 100 nM)	cell viability (Caco-2 [12]; 1000 nM)	cell viability (Caco-2 [12]; 10000 nM)	cell viability (Vero E6 [13]; 1 nM)	cell viability (Vero E6 [13]; 10 nM)	cell viability (Vero E6 [13]; 100 nM)	cell viability (Vero E6 [13]; 1000 nM)	cell viability (Vero E6 [13]; 10000 nM)	cell viability (HepG2 [14]; 1 nM)	cell viability (HepG2 [14]; 10 nM)	cell viability (HepG2 [14]; 100 nM)	cell viability (HepG2 [14]; 1000 nM)	cell viability (HepG2 [14]; 10000 nM)	cell viability (Calu-3 [15]; 1 nM)	cell viability (Calu-3 [15]; 10 nM)	cell viability (Calu-3 [15]; 100 nM)	cell viability (Calu-3 [15]; 1000 nM)	cell viability (Calu-3 [15]; 10000 nM)
O=C1CC[C@@](c2ccccc2)(C2CCN(Cc3ccc(I)cc3)CC2)C(=O)N1 [iododexetimide]	> 10 µM	> 10 µM	> 10 µM	> 10 µM	> 10 µM	0	0	0	1.4	0	98.8%	95.5%	94.3%	100%	90.4%	89%	104%	98.1%	97.7%	93.9%	98.7%	100%	102%	100%	93%	107%	96.4%	92.5%	87.5%	83.6%	97.8%	110%	102%	107%	104%
CC(C)[N+](C)(CCC(C(N)=O)(c1ccccc1)c1ccccc1)C(C)C [isopropamide-iodide]	> 10 µM	> 10 µM	> 10 µM	> 10 µM	> 10 µM	0	0	0	0	0	104%	99.8%	103%	98.4%	100%	102%	94.2%	98.1%	93.9%	101%	102%	104%	101%	99.4%	98.6%	98.1%	108%	93.5%	100%	102%	97.2%	90.1%	96.2%	94.1%	87.1%
O[C@@H]1CO[C@H]2[C@@H]1OC[C@@H]2O [isosorbide]	> 10 µM	> 10 µM	> 10 µM	> 10 µM	> 10 µM	0	0	0	0	0	96.8%	98.9%	95%	98.8%	94.4%	94.8%	93.7%	91.4%	102%	99.8%	96.7%	100%	97.5%	92.9%	99.8%	93.4%	92.5%	106%	99.6%	105%	97.3%	97.6%	106%	101%	111%
O=C(O)c1ccccc1C(=O)Nc1ccc(-c2ccccc2)cc1 [kartogenin]	> 10 µM	> 10 µM	> 10 µM	> 10 µM	> 10 µM	0	0	0	0	0	103%	104%	100%	98.6%	100%	99.2%	90.6%	89.7%	94.2%	93.7%	103%	99%	105%	97.7%	98.1%	98.4%	98.4%	92.7%	97.3%	106%	98.2%	101%	105%	102%	103%
O=C(c1ccccc1)c1ccc2n1CCC2C(=O)O (stereo not given) [ketorolac]	> 10 µM	> 10 µM	> 10 µM	> 10 µM	> 10 µM	0	0	0	0.2	0	99.5%	105%	104%	96.6%	92.9%	103%	123%	110%	98.3%	91.8%	102%	104%	108%	105%	96.1%	102%	107%	113%	97.7%	87.2%	95.7%	109%	110%	99.5%	104%
CC(=O)NCCc1c(Cc2ccccc2)[nH]c2ccccc12 [luzindole]	> 10 µM	> 10 µM	> 10 µM	> 10 µM	> 10 µM	0	0	0	0	0	102%	103%	100%	104%	96.9%	97.4%	105%	106%	103%	102%	95.9%	99%	95.1%	94.6%	97.4%	103%	99.9%	104%	95.5%	110%	98.6%	102%	105%	104%	96.2%
Cc1cccc(C(C)c2c[nH]cn2)c1C (stereo not given) [medetomidine]	> 10 µM	> 10 µM	> 10 µM	> 10 µM	> 10 µM	0	0	0	0	0	100 ± 2.2%	96.1 ± 0.71%	102 ± 5.5%	94.5 ± 0.42%	97.6 ± 6.1%	97.85 ± 0.35%	88 ± 1.9%	99.2 ± 5.2%	100 ± 3.1%	99.1 ± 1.6%	95.3 ± 0.57%	97.5 ± 0.99%	92.5 ± 3.8%	99.75 ± 0.071%	101 ± 3.2%	92.5 ± 2.5%	106 ± 1.3%	101 ± 2.7%	102 ± 9.6%	111.4 ± 0.14%	104 ± 2.5%	98.5 ± 14%	103 ± 2.5%	105 ± 11%	95.2 ± 0.57%
CCCNC(C)(C)COC(=O)c1ccccc1 [meprylcaine]	> 10 µM	> 10 µM	> 10 µM	> 10 µM	> 10 µM	0	0	0	0	0	98.6%	98.2%	103%	97.7%	99.5%	98.1%	104%	94.3%	106%	96.6%	96%	103%	91.8%	95.2%	103%	86.3%	100%	94%	95.6%	91.9%	102%	112%	105%	99.9%	94.5%
CN1C[C@H](CNC(=O)OCc2ccccc2)C[C@@H]2c3cccc4c3c(cn4C)C[C@H]21 [metergoline]	> 10 µM	> 10 µM	> 10 µM	> 10 µM	> 10 µM	0	0	0.4	0.6	0	95.4%	99.1%	104%	96.4%	95.8%	116%	91.3%	101%	88.1%	99.6%	105%	105%	95.2%	94%	84.2%	101%	98.5%	100%	96.9%	84.6%	101%	92.2%	101%	89.8%	104%
CC(=O)Nc1c(I)c(C(=O)O)c(I)c(N(C)C(C)=O)c1I [metrizoic-acid]	> 10 µM	> 10 µM	> 10 µM	> 10 µM	> 10 µM	0	0	0	0	0	97.6%	105%	95.9%	105%	96.5%	92%	102%	94%	97.3%	92.8%	104%	98.6%	105%	98.8%	101%	107%	104%	105%	96.6%	110%	96.6%	103%	98.3%	94.9%	107%
Cc1cc(-c2ccccc2)nnc1NCCN1CCOCC1 [minaprine]	> 10 µM	> 10 µM	> 10 µM	> 10 µM	> 10 µM	0	0	0	0	0.2	104%	97.8%	99.6%	98.9%	103%	92%	96%	98.4%	96.1%	89.3%	101%	98.1%	98.8%	100%	94.5%	96.3%	99.6%	96.8%	94.2%	93.6%	102%	96.8%	99.1%	89.4%	91.7%
Nc1cccc2c(=O)[nH][nH]c(=O)c12 [monosodium-alpha-luminol]	> 10 µM	> 10 µM	> 10 µM	> 10 µM	> 10 µM	0	0	0	0	0	98%	102%	95.4%	102%	103%	93%	88.6%	90.3%	92.7%	97.7%	102%	92.7%	96.1%	95.2%	106%	95.9%	89.7%	104%	89.8%	113%	98.5%	100%	97.4%	105%	105%
CO[C@@]1(NC(=O)C(C(=O)O)c2ccc(O)cc2)C(=O)N2C(C(=O)O)=C(CSc3nnnn3C)CO[C@@H]21 (stereo not given in full) [moxalactam]	> 10 µM	> 10 µM	> 10 µM	> 10 µM	> 10 µM	0	0	0	0	0	94.8%	98.2%	96.1%	103%	104%	92.6%	99.7%	96.7%	95.9%	105%	98.1%	97.5%	98.1%	92.7%	100%	102%	95.2%	117%	84.9%	117%	93.2%	100%	92.1%	105%	98%
